Legend:
steroid 5α-reductase = assay: in vitro steroid 5α-reductase inhibitory activity using ventral prostate tissue from male rats; assay type: biochemical; details: rat ventral prostate particulate; [3H]-testosterone substrate, pH 6.5, 37° C., 30 minutes
Description: The compounds of the formula (I) may be tested in vitro for steroid 5α-reductase inhibitory activity using prostate tissue from rats or humans as follows:
(i) The compounds of the formula (I) may be tested for their potency in inhibiting rat steroid 5α-reductase using ventral prostate tissue from male rats. In determining inhibitory potency against rat prostatic 5α-reductase the following procedure was employed:
Rat prostates were minced into small pieces. The tissue was homogenised in Buffer A (20 mM sodium phosphate, pH 6.5, buffer containing 0.32M sucrose and 1 mM dithiothreitol) with a Brinkman Polytron (Kinematica, Luzern, GmBH), and then homogenised with a motor driven (1000 rpm) Potter Elvehjem (teflon-to-glass) homogeniser. Prostate particles were obtained by centrifugation at 105,000 G for 60 minutes. The pellet was washed in 4 volumes of Buffer A and recentrifuged at 105,000 G. The resulting pellet was dispersed in Buffer A (1 ml per g of prostate tissue originally used) with a motor driven Potter Elvehjem homogeniser as described above. The particulate suspension was stored as 1 ml samples at -70° C.
The following components, dissolved in Buffer B (40 mM sodium phosphate buffer, pH 6.5), were added to test tubes: 500 μl of [^3 H]-testosterone (1 μCi, 1 nmol; Du Pont, NEN Research Products, Stevenage, U.K.), 100 μl of 0.5 mM NADPH, a compound of the formula (I) dissolved in 5 μl of dimethyl sulphoxide, and Buffer B to give a final reaction volume of 1 ml. The mixture was warmed to 37° C. and the reaction started by addition of an aliquot of prostate particulate suspension. The reaction mixture was incubated at 37° C. for 30 minutes and then quenched by addition with vigorous mixing of 2 ml of ethyl acetate containing 20 μg each of testosterone and 5α-dihydrotestosterone as carriers. The aqueous and organic layers were separated by centrifugation at 2000 G for 10 minutes. The organic layer was transferred to a second test tube and evaporated to dryness under nitrogen. The residue was dissolved in 50-80 μl of absolute ethanol and spotted onto a silica gel 60 F254 TLC plate (E. Merck, Darmstadt, Germany) and developed in chloroform:acetone (185:15).
The radiochemical content in the bands of the substrate (testosterone) and the product (5α-dihydrotestosterone) were determined with a RITA Radio TLC Analyser (Raytest Instruments Ltd., Sheffield, U.K.). The percent of recovered radiolabel converted to 5α-dihydrotestosterone was calculated and used to determine enzyme activity. All incubations were conducted so that no more than 15% of substrate (testosterone) was converted to product.
The experimentally obtained data for a range of inhibitor concentrations was computer fitted to a sigmoidal dose-response curve and concentrations of compound giving 50% inhibition of 5α-reductase activity (IC50 's) were calculated using a SIGFIT program (De Lean, A., Munson, P. J. and Rodbard, D., American Journal of Physiology, 235, E97 (1978)).
A selection of compounds of the formula (I) was tested in vitro for steroid 5α-reductase inhibitory activity using ventral prostate tissue from male rats according to the procedure outlined on pages 35 to 37 of the description.

mice = assay: Toxicity Study, oral administration to mice; assay type: in vivo; details: up to a dose of 1000 mg/kg, throughout the duration of the study

| Compound | IC50 (steroid 5α-reductase) | appearance and behaviour (mice) |
| --- | --- | --- |
| O=C(O)CCCCn1cc(C(=O)c2ccc3c(c2)OC(c2ccccc2)(c2ccccc2)O3)c2ccccc21 [Example 34] | 264 nM | – |
| CCCc1ccc(C2(c3ccc(CCC)cc3)Oc3ccc(C(=O)c4cn(CCCC(=O)O)c5ccccc45)cc3O2)cc1 [Example 5] | 33.7 nM | – |
| O=C(O)CCCn1cc(C(=O)c2ccc3c(c2)OC(c2ccc(Cl)cc2)(c2ccc(Cl)cc2)O3)c2ccccc21 [Example 6] | 15.6 nM | – |
| O=C(O)CCCn1cc(C(=O)Cc2ccc3c(c2)OC(c2ccc(Cl)cc2)(c2ccc(Cl)cc2)O3)c2ccccc21 [Example 37] | 100 nM | – |
| CCCc1ccc(C2(c3ccc(OC)cc3)Oc3ccc(C(=O)c4cn(CCCC(=O)O)c5ccccc45)cc3O2)cc1 (centres unmarked) [Example 45] | 7.84 nM | – |
| CC1(c2ccc(OCc3ccccc3)cc2)Oc2ccc(C(=O)c3cn(CCCC(=O)O)c4ccccc34)cc2O1 (centres unmarked) [Example 9] | 67.5 nM | – |
| O=C(O)CCCn1cc(C(=O)c2ccc3c(c2)OC(c2ccc(F)cc2)(c2ccc(F)cc2)O3)c2ccccc21 [Example 7] | 10.7 nM | – |
| O=C(O)CCCn1cc(C(=O)c2ccc3c(c2)OC(c2cccs2)(c2cccs2)O3)c2ccccc21 [Example 15] | 5.29 nM | – |
| CC(C)Cc1ccc(C2(C)Oc3ccc(C(=O)c4cn(CCCC(=O)O)c5ccccc45)cc3O2)cc1 (racemic) [Example 2, 4-[3-([2-methyl-2-(4-[2-methylpropyl]phenyl)-1,3-benzodioxolan-5-yl]carbonyl)indol-1-yl]butanoic acid] | 11.4 nM | – |
| COc1ccc(C2(C)Oc3ccc(C(=O)c4cn(CCCC(=O)O)c5ccccc45)cc3O2)cc1 (centres unmarked) [Example 29] | 3.67 nM | – |
| CCCCC1(c2ccc(CCC)cc2)Oc2ccc(C(=O)c3cn(CCCC(=O)O)c4ccccc34)cc2O1 (centres unmarked) [Example 8] | 2.9 nM | – |
| O=C(O)CCCn1cc(C(=O)Cc2ccc3c(c2)OC(c2ccccc2)(c2ccccc2)O3)c2ccccc21 [Example 35] | 42.6 nM | – |
| Cc1c(C(=O)c2ccc3c(c2)OC(c2ccccc2)(c2ccccc2)O3)c2ccccc2n1CCCC(=O)O [Example 39] | 270 nM | – |
| CC1(c2ccccc2)Oc2ccc(C(=O)c3cn(CCCC(=O)O)c4ccccc34)cc2O1 (centres unmarked) [Example 14] | 21.1 nM | – |
| O=C(O)CCCn1cc(C(=O)c2ccc3c(c2)OC(c2ccccc2)(c2ccccc2)O3)c2ccccc21 [Example 1] | 2.7 nM | – |
| CC1(C2CCCCC2)Oc2ccc(C(=O)c3cn(CCCC(=O)O)c4ccccc34)cc2O1 (centres unmarked) [Example 19] | 11 nM | – |
| CCCc1ccc(C2(CC)Oc3ccc(C(=O)c4cn(CCCC(=O)O)c5ccccc45)cc3O2)cc1 (centres unmarked) [Example 27] | 1.41 nM | – |
| O=C(O)CCCn1cc(C(=O)c2ccc3c(c2)OC2(CCCc4ccccc42)O3)c2ccccc21 (centres unmarked) [Example 10] | 7.91 nM | – |
| CC(C)Cc1ccc(C2(C)Oc3ccc(CC(=O)c4cn(CCCC(=O)O)c5ccccc45)cc3O2)cc1 (centres unmarked) [Example 36] | 251 nM | – |
| CC(C)Cc1ccc(C2(C)Oc3ccc(C(=O)c4cn(CCCC(=O)O)c5ccccc45)cc3O2)cc1 (single isomer, unassigned; (-)) [Example 4, (-)-4-[3-([2-methyl-2-(4-[2-methylpropyl]phenyl)-1,3-benzodioxolan-5-yl]carbonyl)indol-1-yl]butanoic acid] | 10.3 nM | normal appearance and behaviour |
| Cc1c(C(=O)c2ccc3c(c2)OC(C)(c2ccc(CC(C)C)cc2)O3)c2ccccc2n1CCCC(=O)O (centres unmarked) [Example 40] | 260 nM | – |
| O=C(O)CCCn1cc(C(=O)c2ccc3c(c2)OC2(CCC(c4ccccc4)C2)O3)c2ccccc21 (centres unmarked) [Example 31] | 5.56 nM | – |
